According to article PMC8217170, “Phase Ib dose-escalation study of the hypoxia-modifier Myo-inositol trispyrophosphate in patients with hepatopancreatobiliary tumors” (Nature Communications, 2021):
Where “and” joins values, the source holds several entries; their conditions need not be identical. Identical values can stand only once.

Tests used:
VEGFA = assay: Serum angiogenesis marker, multiplex bead-based immunoassay (LEGENDplex); format: in vivo, human; design: VEGF: unit not given here; conditions: for VEGF: serum, duplicate wells
ANG2 = assay: as above; format: in vivo, human; design: ANG2: unit not given here; conditions: for ANG2: serum, duplicate wells
ERG = assay: Immunohistochemistry of tumor tissue before vs after ITPP, one patient; format: in vivo, human
Experimental: (§1) Samples were collected in 4% buffered formaldehyde, dehydrated, embedded in paraffin and cut into 5 µm sections and stained after antigen retrieval. Hematoxylin/eosin and Masson’s trichrome stains were performed according to standard protocols. The following antibodies were used for immunohistochemical staining: pan-B cytokeratin (CkpanB, Dako, M3515, dilution 1/50), HIF1α (Abcam, ab16066, dilution 1/400), HIF2α (Abcam, ab199, dilution 1/50), carbonic anhydrase 9 (CA9, Abcam, ab15086, dilution 1/3000), glucose transporter 1/SLC2A1 (GLUT1, Millipore, 07-1401, dilution 1/1000), PECAM1 / CD31 (Dako, M0823, dilution 1/10), ETS transcription factor (ERG, Roche, 790-4576, prediluted) and vimentin (VIM, Dako, M7020, dilution 1/250). For histological analyses, 5 random images of tumor areas of stained slides were taken at 40x magnification. Stained areas were isolated by color deconvolution and thresholding. Quantification of staining intensity was measured on thresholded areas, converted onto a scale from 0 (white, no staining) to 100 (black, completely stained) and compared between the sample taken before ITPP treatment and the one after. For calculation of percentage area stained, thresholded areas were compared to the complete area of the picture. ImageJ (V1.53c, National Institutes of Health, USA) was used for all histological analyses.
(§2) This analyses must be regarded with caution due to n=1!

HIF1α = assay: as above; format: in vivo, human
Experimental: as §1, §2

HIF2α = assay: as above; format: in vivo, human; conditions: patient nr. 21, CRLM, only weak staining
Experimental: as §1, §2

PECAM1/CD31 = assay: as above; format: in vivo, human; conditions: CD31 stain, group After (ITPP), one value per image field; threshold 0-90
Experimental: as §1, §2

SLC2A1/GLUT1 = assay: as above; format: in vivo, human; conditions: patient nr. 21, CRLM
Experimental: as §1, §2

Vimentin = assay: as above; format: in vivo, human
Experimental: as §1, §2

[1] = tested on: carbonic anhydrase 9 (CA9); assay: as above; format: in vivo, human
Experimental: as §1, §2

[2] = design: method as in NormOxys phase I clinical trial; conditions: ref NormOxys phase I clinical trial, cited from earlier work
[3] = following ITPP treatment, 27 patients
[4] = Patient 25, Cohort 8, PDAC, Day 3 post
[5] = Patient 25, Cohort 8, PDAC, Day 9 post
[6] = Patient 26, Cohort 8, PDAC, Day 3 post
[7] = Patient 26, Cohort 8, PDAC, Day 9 post
[8] = Patient 27, Cohort 8, CCC, Day 3 post
[9] = Patient 27, Cohort 8, CCC, Day 9 post
[10] = Patient 28, Cohort 8, CRLM, Day 3 post
[11] = Patient 28, Cohort 8, CRLM, Day 9 post

O=P1(O)OC2C3OP(=O)(O)OP(=O)(O)OC3C3OP(=O)(O)OP(=O)(O)OC3C2OP(=O)(O)O1 (centres unmarked) [ITPP, Myo-inositol trispyrophosphate]
Share of patients with reduced VEGFA (VEGFA; [3]): 44.4% | VEGF (VEGFA; [4]): 30.91 | VEGF (VEGFA; [5]): 33.24 and 35.03 | VEGF (VEGFA; [6]): 5.98 and 4.62 | VEGF (VEGFA; [7]): 11.09 and 13.08 | VEGF (VEGFA; [8]): 10.87 and 8.9 | VEGF (VEGFA; [9]): 8.12 and 8.9 | VEGF (VEGFA; [10]): 2.84 | VEGF (VEGFA; [11]): 2.84 | Share of patients with reduced ANG2 (ANG2; [3]): 59.3% | ANG2 (ANG2; [4]): 228.25 | ANG2 (ANG2; [5]): 251.99 and 267.93 | ANG2 (ANG2; [6]): 4.97 and 2.94 | ANG2 (ANG2; [7]): 13.32 and 15.98 | ANG2 (ANG2; [8]): 207.26 and 180.83 | ANG2 (ANG2; [9]): 218.06 and 212.68 | ANG2 (ANG2; [10]): 323.31 and 262.92 | ANG2 (ANG2; [11]): 200.18 and 179.44 | %Area (ERG; Erg stain, group After (ITPP), one value per image field, threshold 0-130): 0.53% and 0.557% and 0.323% and 0.603% and 0.393% | ERG after ITPP treatment (ERG; patient nr. 21, CRLM): more abundant | %Area (HIF1α; HIF1a stain, group After (ITPP), one value per image field, threshold 0-220): 60.518% and 62.226% and 71.026% and 45.098% and 63.507% | HIF1α staining, before vs after ITPP treatment (HIF1α; patient nr. 21, CRLM, only weak staining): no difference | HIF2α staining, before vs after ITPP treatment (HIF2α): no difference | %Area (PECAM1/CD31): 1.371% and 1.754% and 0.512% and 2.094% and 0.52% | Expression of SLC2A1/GLUT1 in cancer cells after ITPP treatment (SLC2A1/GLUT1): downregulated | %Area (Vimentin; Vim stain, group After (ITPP), one value per image field, threshold 0-160): 29.786% and 30.117% and 24.166% and 28.151% and 26.502% | Vimentin after ITPP administration (Vimentin; patient nr. 21, CRLM): decreased | %Area ([1]; CAIX stain, group After (ITPP), one value per image field, threshold 0-130): 0.006% and 0.014% and 0.943% and 0.008% and 0.048% | Expression of carbonic anhydrase 9 (CA9) after ITPP treatment ([1]; patient nr. 21, CRLM): decreased | Subjects with treatment-emerged adverse effects (TEAEs) ([2]; ITPP-treated group, 750 to 5600 mg/m2, intravenous infusion during 4 h): 9/24 | Dose well tolerated in unaffected volunteers [2]: 5600 mg/m2 | Serious adverse effects or deaths associated with TEAEs [2]: No serious adverse effects (SAEs) or deaths
